Data: patent US8748602B2, “Polymorphs of erlotinib hydrochloride and method of preparation” (Natco Pharma Limited, priority 2007, dated 2014)
Structures can show the parent of a compound that is named as a salt.

How the values were obtained:
[1] = solid state stability of the polymorphic forms; format: physicochemical
[2] = compared with polymorphic Form A; cited from earlier work

| SMILES | stability in the solid state ([1]; higher temperatures of the order of 60°-120° C.) | stability in the solid state ([1]; room temperature (30°-35° C.)) | thermodynamic stability [2] |
| --- | --- | --- | --- |
| C#Cc1cccc(Nc2ncnc3cc(OCCOC)c(OCCOC)cc23)c1.Cl [Form-M, Erlotinib Hydrochloride] | very stable | very stable | – |
| C#Cc1cccc(Nc2ncnc3cc(OCCOC)c(OCCOC)cc23)c1 [Form-B, Erlotinib HCl] | – | – | thermodynamically more stable |
